Laboratory results taken from ChEMBL document CHEMBL2176958, “Novel aromatase inhibitors by structure-guided design” (J Med Chem, 2012).

Legend:
MCF7a = assay: (§1) Cytotoxicity against human MCF7a cells expressing Tet-off-3betaHSD1-Arom assessed as inhibition of TST-stimulated cell proliferation measured after 10 days; type: functional, cell-based
Aromatase = target: T1, Aromatase (Homo sapiens, UniProt P11511); assay: Inhibition of human placental aromatase using [3H]-1beta-androstenedione as substrate after 16 hrs by [3H]-water method; conditions: for inhibition (INH): human, 16 h
T1 sequence (P11511 whole entry): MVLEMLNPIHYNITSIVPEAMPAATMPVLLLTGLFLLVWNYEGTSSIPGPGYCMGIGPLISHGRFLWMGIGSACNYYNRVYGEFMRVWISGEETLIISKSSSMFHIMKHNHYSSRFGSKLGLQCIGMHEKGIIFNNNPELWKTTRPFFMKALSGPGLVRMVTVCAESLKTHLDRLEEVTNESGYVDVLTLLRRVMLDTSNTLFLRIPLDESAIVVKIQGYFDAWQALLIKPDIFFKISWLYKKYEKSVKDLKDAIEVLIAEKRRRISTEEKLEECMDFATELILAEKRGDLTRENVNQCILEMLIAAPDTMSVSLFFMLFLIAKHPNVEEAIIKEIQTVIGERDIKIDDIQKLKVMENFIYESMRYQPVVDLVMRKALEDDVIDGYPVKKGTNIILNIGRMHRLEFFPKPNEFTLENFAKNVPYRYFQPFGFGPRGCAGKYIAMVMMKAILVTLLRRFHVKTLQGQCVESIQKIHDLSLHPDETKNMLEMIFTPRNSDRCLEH

[1] = as §1; type: functional, cell-based; conditions: 240 h

SMILES: CCCCCCCC#CCO[C@@H]1C[C@@H]2[C@H](CC[C@]3(C)C(=O)CC[C@@H]23)[C@@]2(C)C=CC(=O)C=C12
- inhibition (MCF7a): Dose-dependent effect
- IC50 (Aromatase): 2180 nM
- inhibition (INH) (Aromatase): Dose-dependent effect

SMILES: CO[C@@H]1C[C@@H]2[C@H](CC[C@]3(C)C(=O)CC[C@@H]23)[C@@]2(C)C=CC(=O)C=C12
- IC50 (Aromatase): 5200 nM
- inhibition (INH) (Aromatase): Dose-dependent effect

SMILES: N#Cc1ccc(C(c2ccc(C#N)cc2)n2cncn2)cc1 [LETROZOLE]
- EC50 [1]: 0.004 nM
- inhibition (INH) (Aromatase): Dose-dependent effect

SMILES: C[C@]12CCC(=O)C(O)=C1CC[C@@H]1[C@@H]2CC[C@]2(C)C(=O)CC[C@@H]12 [FORMESTANE]
- IC50 (Aromatase): 48.6 nM
- inhibition (INH) (Aromatase): Dose-dependent effect

SMILES: CCO[C@@H]1C[C@@H]2[C@H](CC[C@]3(C)C(=O)CC[C@@H]23)[C@@]2(C)C=CC(=O)C=C12
- IC50 (Aromatase): 18100 nM
- inhibition (INH) (Aromatase): Dose-dependent effect

SMILES: CCC#CCO[C@@H]1C[C@@H]2[C@H](CC[C@]3(C)C(=O)CC[C@@H]23)[C@@]2(C)C=CC(=O)C=C12
- inhibition (MCF7a): Dose-dependent effect
- EC50 [1]: 0.03 nM
- inhibition (INH) (Aromatase): Dose-dependent effect

SMILES: C[C@]12C=CC(=O)C=C1[C@H](OCC#CCO)C[C@@H]1[C@@H]2CC[C@]2(C)C(=O)CC[C@@H]12
- inhibition (MCF7a): Dose-dependent effect
- EC50 [1]: 0.3 nM
- IC50 (Aromatase): 20 nM
- inhibition (INH) (Aromatase): Dose-dependent effect

SMILES: CCCC#CCO[C@@H]1C[C@@H]2[C@H](CC[C@]3(C)C(=O)CC[C@@H]23)[C@@]2(C)C=CC(=O)C=C12
- inhibition (MCF7a): Dose-dependent effect
- EC50 [1]: 3.4 nM
- IC50 (Aromatase): 83 nM
- inhibition (INH) (Aromatase): Dose-dependent effect

SMILES: CCCCC#CCO[C@@H]1C[C@@H]2[C@H](CC[C@]3(C)C(=O)CC[C@@H]23)[C@@]2(C)C=CC(=O)C=C12
- inhibition (MCF7a): Dose-dependent effect
- EC50 [1]: 5.4 nM
- IC50 (Aromatase): 181 nM
- inhibition (INH) (Aromatase): Dose-dependent effect

SMILES: CC#CCO[C@@H]1C[C@@H]2[C@H](CC[C@]3(C)C(=O)CC[C@@H]23)[C@@]2(C)C=CC(=O)C=C12
- inhibition (MCF7a): Dose-dependent effect
- EC50 [1]: 1.7 nM
- IC50 (Aromatase): 112 nM
- inhibition (INH) (Aromatase): Dose-dependent effect
